In patent US10781262B2, “Combination therapy of T cell activating bispecific antigen binding molecules and PD-1 axis binding antagonists” (Hoffmann-La Roche Inc., priority 2014, dated 2020):
Like-named read-outs stand apart in the source and are kept apart here.

Key:
[1] = tested on: primary CD34+ AML cells from relapsed/refractory patients; test: Cytotoxic activity on primary AML cells, CellTiter-Glo; format: cell-based, human; conditions: Fab-PE24 constructs, 3 days; for IC50: Homo sapiens, 72 h
Source text: CD34^+ cells from peripheral blood of relapsed/refractory patients were obtained from AllCells, LLC, Alameda, Calif. […] (see FIG. 31).
(§1) Cycloheximide was used as positive control.

[2] = tested on: Pfeiffer cells; test: Cytotoxic activity, CellTiter-Glo Luminescent Cell Viability Assay; conditions: for IC50: Homo sapiens, Pfeiffer
Description: (§2) Treatment ranges from 10 μg/ml to 1 ng/ml in triplicate. All antibodies were used as full length mouse Fcγ versions. For conjugation of the conjugation of the Pseudomonas exotoxin 10 μg/ml of mouse Fcγ fragment specific Fabs conjugated with PE 24 were added and incubated for 3 days at 37° C. Cycloheximide as a known protein synthesis inhibitor in eukaryotes was used as positive control. Viability of treated cells were measured with Promega CellTiter-Glo Luminescent Cell Viability Assay.
(§3) The cytotoxic activity was calculated as follow: Rel. Inhibition [%]=(1−(Esampel−E negative control)/(E positive control−E negative control))*100
(§4) All antibodies were used as full length human IgG1 format including the human Fcgamma part. In this experiment conjugation of the Pseudomonas exotoxin was achieved via human Fcγ fragment specific Fabs conjugated with PE 24 (10 μg/ml) which were added and incubated for 5 days at 37° C.
(§5) The cytotoxic activity was analysed with Promega CellTiter-Glo Luminescent Cell Viability Assay as described above. 1:5 serial dilutions of Fab-fragments of disclosed anti-TIM3 antibodies directly conjugated to PE24 with the highest concentration of 50 μg/ml or appropriate media to untreated cells or non-binding anti-PSMA Fab-PE24 control to untargeted treated cells were incubated with 7.5×10^3 Pfeiffer cells or 2×10^3 RPMI-8226 cells (50 μl/well in […]) for 4 days at 37° C. Treatment ranges from 50 μg/ml to 8 ng/ml in triplicate. Cycloheximide was used as positive control.
(§6) The evaluation of cytotoxic activity of sortase coupled Fab-PE24 constructs of selected disclosed anti-TIM3 antibodies was analysed with Promega CellTiter-Glo Luminescent Cell Viability Assay as described above in Example 28.

[3] = tested on: RPMI-8226 cells; test: as above; conditions: for IC50: Homo sapiens
Description: as §2, §3, §4, §5, §6

[4] = tested on: CMK; test: as above; format: cell-based; conditions: Fab-PE24 constructs
Source text: as §1

[5] = tested on: TF-1; test: as above; format: cell-based; conditions: Fab-PE24 constructs
Source text: as §1

[6] = tested on: Karpas-299; test: as above; format: cell-based; conditions: Fab-PE24 constructs
Source text: as §1

[7] = tested on: MOLM-13; test: as above; format: cell-based; conditions: Fab-PE24 constructs
Source text: as §1

[8] = tested on: recombinant CHO K1 stabile expressing human TIM-3; test: as above; format: cell-based; conditions: CHO-K1, 72 h; sandwich format: mouse Fcγ antibodies + mouse Fcγ specific Fabs conjugated with PE 24, 3 days
[9] = biological target: human FolR3 (Homo sapiens, UniProt P41439); conditions: IgG injected for 60 seconds at 500 nM
Description: (§7) Binding of FolR1 binders as IgG or in the T-cell bispecific format to different recombinant folate receptors (human FolR1, 2 and 3, murine FolR1 and cynomolgus FolR1; all as Fc fusions) was assessed by surface plasmon resonance (SPR). All SPR experiments were performed on a Biacore T200 at 25° C. with HBS-EP as running buffer (0.01 M HEPES pH 7.4, 0.15 M NaCl, 3 mM EDTA, 0.005% Surfactant P20, Biacore, Freiburg/Germany).
(§8) First the anti-FolR1 IgGs were analyzed by single injections (Table 1) to characterize their crossreactivity (to human, murine and cyno FolR1) and specificity (to human FolR1, human FolR2, human FolR3). Recombinant biotinylated monomeric Fc fusions of human, cynomolgus and murine Folate Receptor 1 (FolR1-Fc) or human Folate Receptor 2 and 3 (FolR2-Fc, FolR3-Fc) were directly coupled on a SA chip using the standard coupling instruction (Biacore, Freiburg/Germany). The immobilization level was about 300-400 RU. The IgGs were injected for 60 seconds at a concentration of 500 nM.

[10] = biological target: human FolR1 (Homo sapiens, UniProt P15328); conditions: IgG injected for 60 seconds at 500 nM
Description: as §7, §8

[11] = biological target: murine FolR1 (Mus musculus, UniProt P35846); conditions: IgG injected for 60 seconds at 500 nM
Description: as §7, §8

[12] = biological target: human FolR2 (Homo sapiens, UniProt P14207); conditions: IgG injected for 60 seconds at 500 nM
Description: as §7, §8

[13] = tested on: cynomolgus FolR1; conditions: IgG injected for 60 seconds at 500 nM
Description: as §7, §8

[14] = tested on: cynomolgus Folate Receptor 1 (FolR1-Fc); conditions: bivalent binding (avidity), ligand cyFolR1
Description: as §7
The avidity of the interaction between the anti-FolR1 IgGs or T cell bispecifics and the recombinant folate receptors was determined as described below (Table 9). Recombinant biotinylated monomeric Fc fusions of human, cynomolgus and murine Folate Receptor 1 (FolR1-Fc) were directly coupled on a SA chip using the standard coupling instruction (Biacore, Freiburg/Germany). The immobilization level was about 300-400 RU. The anti-FolR1 IgGs or T cell bispecifics were passed at a concentration range from 2.1 to 500 nM with a flow of 30 μL/minutes through the flow cells over 180 seconds. The dissociation was monitored for 600 seconds. […] The binding curves resulting from the bivalent binding of the IgGs or T cell bispecifics were approximated to a 1:1 Langmuir binding and fitted with that model (which is not correct, but gives an idea of the avidity). The apparent avidity constants for the interactions were derived from the rate constants of the fitting using the Bia Evaluation software (GE Healthcare).

[15] = biological target: T1, human Folate Receptor 1 (FolR1-Fc) (Homo sapiens, UniProt P15328); test: SPR avidity to Folate Receptor 1 (bivalent binding); conditions: bivalent binding (avidity), ligand huFolR1
T1 construct: the extracellular domain of the antigen linked to the hinge region of Fc-knob; made in house; host or cells: HEK293 EBNA
Source text: The immobilization level was about 300-400 RU. […] The dissociation was monitored for 600 seconds.

[16] = biological target: human Folate Receptor 1 Fc fusion (Homo sapiens, UniProt P15328); conditions: monovalent binding (affinity), analyte huFolR1
Description: as §7
(§9) For affinity measurement, direct coupling of around 6000-7000 resonance units (RU) of the anti-human Fab specific antibody (Fab capture kit, GE Healthcare) was performed on a CM5 chip at pH 5.0 using the standard amine coupling kit (GE Healthcare). Anti-FolR1 IgGs or T cell bispecifics were captured at 20 nM with a flow rate of 10 μl/min for 20 or 40 sec, the reference flow cell was left without capture. Dilution series (6.17 to 500 nM or 12.35 to 3000 nM) of human or cyno Folate Receptor 1 Fc fusion were passed on all flow cells at 30 μl/min for 120 or 240 sec to record the association phase. The dissociation phase was monitored for 240 s and triggered by switching from the sample solution to HBS-EP. The chip surface was regenerated after every cycle using a double injection of 60 sec 10 mM Glycine-HCl pH 2.1 or pH 1.5. Bulk refractive index differences were corrected for by subtracting the response obtained on the reference flow cell 1. The affinity constants for the interactions were derived from the rate constants by fitting to a 1:1 Langmuir binding using the Bia Evaluation software (GE Healthcare).

[17] = biological target: cyno Folate Receptor 1 Fc fusion; conditions: monovalent binding (affinity), analyte cyFolR1
Description: as §7, §9

[18] = Fab-PE24 construct vs. total IgG-Amatoxin conjugate
[19] = sortase coupled Fab-PE24 constructs
[20] = human IgG1 format + human Fcγ specific Fabs conjugated with PE 24, 5 days

cyno Folate Receptor 1 Fc fusion, sequence (as listed by the source): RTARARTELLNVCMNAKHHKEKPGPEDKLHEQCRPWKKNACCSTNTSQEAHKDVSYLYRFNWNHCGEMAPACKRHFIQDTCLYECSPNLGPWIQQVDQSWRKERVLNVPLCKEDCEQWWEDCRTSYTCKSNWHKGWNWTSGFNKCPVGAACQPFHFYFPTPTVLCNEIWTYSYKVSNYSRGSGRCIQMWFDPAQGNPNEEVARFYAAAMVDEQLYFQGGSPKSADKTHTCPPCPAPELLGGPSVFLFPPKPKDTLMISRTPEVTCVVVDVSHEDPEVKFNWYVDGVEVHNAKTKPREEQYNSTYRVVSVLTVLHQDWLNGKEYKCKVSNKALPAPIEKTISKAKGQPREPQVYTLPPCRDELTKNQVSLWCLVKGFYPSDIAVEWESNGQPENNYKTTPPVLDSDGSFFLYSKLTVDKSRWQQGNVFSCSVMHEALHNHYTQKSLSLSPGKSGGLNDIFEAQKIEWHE
cyno Folate Receptor 1 Fc fusion, sequence (P01857 104-330 isoform P01857-1 Y232C/T249S/L251A/Y290V/H318R/Y319F partner): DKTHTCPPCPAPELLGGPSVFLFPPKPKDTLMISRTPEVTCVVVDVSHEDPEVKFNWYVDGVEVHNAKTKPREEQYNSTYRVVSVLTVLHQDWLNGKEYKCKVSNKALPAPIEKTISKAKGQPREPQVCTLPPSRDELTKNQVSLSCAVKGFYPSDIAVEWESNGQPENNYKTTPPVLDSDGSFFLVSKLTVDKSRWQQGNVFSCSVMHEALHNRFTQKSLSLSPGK
cynomolgus Folate Receptor 1 (FolR1-Fc), sequence (as listed by the source): as the sequence (as listed by the source) above
cynomolgus Folate Receptor 1 (FolR1-Fc), sequence (as listed by the source partner): as the sequence (P01857 104-330 isoform P01857-1 Y232C/T249S/L251A/Y290V/H318R/Y319F partner) above
T1 sequence (P15328 with tags, fused parts or gaps): as the sequence (as listed by the source) above, with T2I, R4W, K37R, P146A, Y171H counted along it
T1 sequence (P01857 104-330 isoform P01857-1 Y232C/T249S/L251A/Y290V/H318R/Y319F partner): as the sequence (P01857 104-330 isoform P01857-1 Y232C/T249S/L251A/Y290V/H318R/Y319F partner) above
human Folate Receptor 1 Fc fusion, sequence (P15328 with tags, fused parts or gaps): as the sequence (as listed by the source) above, with T2I, R4W, K37R, P146A, Y171H counted along it
human Folate Receptor 1 Fc fusion, sequence (P01857 104-330 isoform P01857-1 Y232C/T249S/L251A/Y290V/H318R/Y319F partner): as the sequence (P01857 104-330 isoform P01857-1 Y232C/T249S/L251A/Y290V/H318R/Y319F partner) above
human FolR2, sequence (P14207 with tags, fused parts or gaps): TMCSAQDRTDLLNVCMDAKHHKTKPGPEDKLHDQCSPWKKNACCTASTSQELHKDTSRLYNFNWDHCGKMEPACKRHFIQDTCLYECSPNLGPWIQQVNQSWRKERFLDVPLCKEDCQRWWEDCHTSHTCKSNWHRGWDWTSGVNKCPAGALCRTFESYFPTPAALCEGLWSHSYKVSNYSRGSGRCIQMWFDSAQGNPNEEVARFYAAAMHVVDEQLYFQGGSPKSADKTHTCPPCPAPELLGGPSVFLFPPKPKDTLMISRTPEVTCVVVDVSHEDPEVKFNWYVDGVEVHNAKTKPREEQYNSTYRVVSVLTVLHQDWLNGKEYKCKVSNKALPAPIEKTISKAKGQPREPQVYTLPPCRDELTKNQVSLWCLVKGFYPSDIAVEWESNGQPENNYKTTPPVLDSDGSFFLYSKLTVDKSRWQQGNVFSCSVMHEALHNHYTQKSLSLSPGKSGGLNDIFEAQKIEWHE
human FolR2, sequence (P01857 104-330 isoform P01857-1 Y232C/T249S/L251A/Y290V/H318R/Y319F partner): as the sequence (P01857 104-330 isoform P01857-1 Y232C/T249S/L251A/Y290V/H318R/Y319F partner) above
human FolR3, sequence (P41439 with tags, fused parts or gaps): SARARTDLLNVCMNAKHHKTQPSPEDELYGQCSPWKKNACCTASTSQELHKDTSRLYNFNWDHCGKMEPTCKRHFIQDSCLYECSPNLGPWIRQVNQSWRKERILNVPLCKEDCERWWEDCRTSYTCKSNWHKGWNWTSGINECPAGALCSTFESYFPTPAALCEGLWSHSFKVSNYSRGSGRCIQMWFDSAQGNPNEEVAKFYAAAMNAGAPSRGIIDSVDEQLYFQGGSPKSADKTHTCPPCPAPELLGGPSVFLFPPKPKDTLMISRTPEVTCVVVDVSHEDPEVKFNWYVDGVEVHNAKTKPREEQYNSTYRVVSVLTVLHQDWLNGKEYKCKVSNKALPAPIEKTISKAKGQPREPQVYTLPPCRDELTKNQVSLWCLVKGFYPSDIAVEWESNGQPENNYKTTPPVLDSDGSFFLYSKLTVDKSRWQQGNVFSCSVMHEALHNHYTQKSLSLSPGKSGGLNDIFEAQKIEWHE
human FolR3, sequence (P01857 104-330 isoform P01857-1 Y232C/T249S/L251A/Y290V/H318R/Y319F partner): as the sequence (P01857 104-330 isoform P01857-1 Y232C/T249S/L251A/Y290V/H318R/Y319F partner) above
human FolR1, sequence (P15328 with tags, fused parts or gaps): as the sequence (as listed by the source) above, with T2I, R4W, K37R, P146A, Y171H counted along it
human FolR1, sequence (P01857 104-330 isoform P01857-1 Y232C/T249S/L251A/Y290V/H318R/Y319F partner): as the sequence (P01857 104-330 isoform P01857-1 Y232C/T249S/L251A/Y290V/H318R/Y319F partner) above
cynomolgus FolR1, sequence (as listed by the source): as the sequence (as listed by the source) above
murine FolR1, sequence (P35846 with tags, fused parts or gaps): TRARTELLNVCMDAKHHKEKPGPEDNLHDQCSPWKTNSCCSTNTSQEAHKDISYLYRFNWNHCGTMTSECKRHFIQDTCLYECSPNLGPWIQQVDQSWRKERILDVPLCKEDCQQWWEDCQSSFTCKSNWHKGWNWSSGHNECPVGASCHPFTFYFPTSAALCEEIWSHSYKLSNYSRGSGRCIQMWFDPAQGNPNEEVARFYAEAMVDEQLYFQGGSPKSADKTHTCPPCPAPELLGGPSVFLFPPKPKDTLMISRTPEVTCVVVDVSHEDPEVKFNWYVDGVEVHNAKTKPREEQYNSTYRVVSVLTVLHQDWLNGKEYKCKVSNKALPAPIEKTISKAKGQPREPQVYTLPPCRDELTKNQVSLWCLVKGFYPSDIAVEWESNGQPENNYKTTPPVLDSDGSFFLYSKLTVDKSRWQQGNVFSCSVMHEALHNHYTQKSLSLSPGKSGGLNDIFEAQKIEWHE
murine FolR1, sequence (as listed by the source partner): as the sequence (P01857 104-330 isoform P01857-1 Y232C/T249S/L251A/Y290V/H318R/Y319F partner) above

With `C[C@@H]1C[C@@H]([C@H](O)CC2CC(=O)NC(=O)C2)C(=O)[C@@H](C)C1` [Cycloheximide] the Max. killing ([1]; D1, AML CD34+ PB0136 cells) was 100 [%], the Max. killing ([1]; D2, AML CD34+ PB0142 cells) was 100 [%] and the Max. killing ([1]; D3, AML CD34+ PB0135 cells) was 100 [%]. The Max. killing ([1]; D4, AML CD34+ PB0193 cells) was 100 [%], the IC50 ([1]; D1, AML CD34+ PB0136 cells) was 212 nM and the IC50 ([1]; D2, AML CD34+ PB0142 cells) was 262 nM. The IC50 ([1]; D3, AML CD34+ PB0135 cells) was 121 nM, the IC50 ([1]; D4, AML CD34+ PB0193 cells) was 208 nM and the Max. killing [2, 18] was 100 [%]. For the same compound, the IC50 ([2]; 72 h, sandwich format: mouse Fcγ antibodies + mouse Fcγ specific Fabs conjugated with PE 24, 3 days) was 181 nM, the IC50 ([2]; 120 h, read-out: Rel. IC50, human IgG1 format + human Fcγ specific Fabs conjugated with PE 24, 5 days) was 271 nM and the IC50 [2, 18] was 163 nM. For the same compound, the IC50 [2, 19] was 271 nM, the Max. killing [2, 20] was 100 [%] and the Max. killing [2, 19] was 100 [%]. The Max. killing ([3]; Fab-PE24 constructs, 4 days) was 100 [%], the IC50 ([3]; RPMI-8226) was 153 nM and the IC50 ([3]; RPMI-8226, 96 h) was 281 nM. For the same compound, the Max. killing [3, 20] was 100 [%], the Max. killing [3, 19] was 100 [%] and the Max. killing [4] was 100 [%]. For the same compound, the IC50 ([4]; Homo sapiens, CMK) was 149 nM, the Max. killing [5] was 100 [%] and the IC50 ([5]; Homo sapiens, TF-1) was 207 nM. For the same compound, the Max. killing [6] was 100 [%], the IC50 ([6]; Homo sapiens, KARPAS-299) was 113 nM and the Max. killing [7] was 100 [%]. For the same compound, the IC50 ([7]; Homo sapiens, MOLM-13) was 156 nM and the IC50 [8] was 135 nM.
For Farletuzumab [reference compound], the “Binding to huFolR3” value [9] was “−”, the “Binding to huFolR1” value [10] was “+” and the “Binding to muFolR1” value [11] was “−”. The “Binding to huFolR2” value [12] was “−”, the “Binding to cyFolR1” value [13] was “+” and the ka [14] was 1.33e+06 M⁻¹ s⁻¹. The kd [14] was 0.000868 s⁻¹, the Kd ([14]; read-out: Apparent KD, approximated 1:1 Langmuir fit) was 0.65 nM and the ka [15] was 1.23e+06 M⁻¹ s⁻¹. For the same compound, the kd [15] was 0.0009 s⁻¹, the ka [16] was 417000 M⁻¹ s⁻¹ and the kd [16] was 0.023 s⁻¹. The Kd [17] was 67.3 nM, the ka [17] was 553000 M⁻¹ s⁻¹ and the kd [17] was 0.0373 s⁻¹.
